Data reported in patent US7829708B2, “Metabolically inert antifolates for treating disorders of abnormal cellular proliferation and inflammation” (Chelsea Therapeutics, Inc., priority 2004, dated 2010).

What was measured:
[1] = molecular target: Human TS (Homo sapiens, UniProt P04818); test: Inhibition of recombinant thymidylate synthase in vitro; assay type: biochemical; settings: read-out: I50 (Human TS)
From the text: (§1) The ability of M-TREX to inhibit recombinant dihydrofolate reductase (DR) and thymidylate synthase (TS) in vitro studied in comparison to other antifolate drugs.

[2] = molecular target: T1, human DHFR (Homo sapiens, UniProt P00374); test: Inhibition of recombinant dihydrofolate reductase in vitro; assay type: biochemical; settings: read-out: I50 (human DHFR)
T1 sequence (P00374 1-187): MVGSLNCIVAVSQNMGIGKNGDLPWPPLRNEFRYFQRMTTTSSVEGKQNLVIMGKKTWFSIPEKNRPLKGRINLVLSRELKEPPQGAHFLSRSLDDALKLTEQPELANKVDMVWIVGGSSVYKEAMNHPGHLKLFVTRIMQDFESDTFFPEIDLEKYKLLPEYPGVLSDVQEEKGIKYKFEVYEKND
From the text: as §1

Chain of Human TS (P04818 whole entry): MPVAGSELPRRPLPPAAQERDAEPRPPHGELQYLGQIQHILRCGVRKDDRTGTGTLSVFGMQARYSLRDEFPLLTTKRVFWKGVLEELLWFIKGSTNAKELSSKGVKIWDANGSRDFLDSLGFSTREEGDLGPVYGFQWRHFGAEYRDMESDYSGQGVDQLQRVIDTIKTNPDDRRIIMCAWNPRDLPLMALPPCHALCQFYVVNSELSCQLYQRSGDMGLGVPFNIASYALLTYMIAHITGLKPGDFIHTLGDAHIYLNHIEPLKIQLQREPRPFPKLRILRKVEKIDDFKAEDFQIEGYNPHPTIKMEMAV

Row | SMILES | IC50 [1] [nM] | IC50 [2] [nM]
1 | C=C(CC(NC(=O)c1ccc(CCc2ccc3nc(N)nc(N)c3c2)cc1)C(=O)O)C(=O)O (stereo not drawn) [M-TREX, 4-Amino-4-deoxy-5,8,10-trideazapteroyl-4′-methylene glutamic acid] | 3800 | 17
2 | C=C(CC(NC(=O)c1ccc(CCc2cnc3nc(N)nc(N)c3n2)cc1)C(=O)O)C(=O)O (stereo not drawn) [MDAM, methylene-1-deazaaminopterine, reference compound] | – | 44
